{"source": "patent US12384816B2", "about": "“Blood-brain barrier permeable peptide” (NATIONAL UNIVERSITY CORPORATION KUMAMOTO UNIVERSITY, priority 2018, dated 2025)", "assay_type_in_all_cases": "cell-based, human", "key": {"hCMEC/D3 cells [1]": {"tested_on": "hCMEC/D3 cells", "experiment": "Influence of monensin on hCMEC/D3 permeation of SLS-phage", "conditions": "monensin-containing medium for 18 hours, concentration-dependent", "experimental": "The medium at the luminal side and the abluminal side was replaced by a monensin-containing medium, and culture was further performed for 18 hours."}, "hCMEC/D3 cells [2]": {"tested_on": "hCMEC/D3 cells", "experiment": "Cytotoxicity (cell counting kit-8) in hCMEC/D3 cells", "conditions": "0 to 100 μM, 24 and 48 hours", "experimental": "The synthetic cyclic peptide SLSHSPQ (SEQ ID NO: 1) (0 to 100 μM) was added to the cells, and incubated in a CO2 incubator at 37° C. The cell viability after 24 and 48 hours was calculated using the cell counting kit-8."}, "hCMEC/D3 cells [3]": {"tested_on": "hCMEC/D3 cells", "experiment": "Influence on tight junction (TEER) of hCMEC/D3 cells", "conditions": "0 to 100 μM, until 48 hours", "experimental": "The synthetic cyclic peptide SLSHSPQ (SEQ ID NO: 1) (0 to 100 μM) before labeling prepared in Example 3 was added to the cells, and they were incubated in a CO2 incubator at 37° C. The influence on tight junction was evaluated by measuring TEER over time until 48 hours later."}, "hCMEC/D3 cells [4]": {"tested_on": "hCMEC/D3 cells", "experiment": "Uptake of FAM-labeled cyclic peptide into hCMEC/D3 cells (confocal microscopy)", "conditions": "10 µM, 37° C., 10, 30 and 60 minutes", "experimental": "A FAM-labeled synthetic cyclic peptide having the SLSHSPQ (SEQ ID NO: 1) sequence was prepared by requesting Scrum Co., Ltd. A peptide having the sequence of […] (SEQ ID NO: 5), which contains […] (SEQ ID NO: 6), was chemically synthesized, and then a cyclic peptide was formed by forming a disulfide bond between the cysteine residues. Then, a lysine residue was added to the C-terminal and FAM was further bonded to prepare a FAM-labeled cyclic peptide.\nThe FAM-labeled synthetic cyclic peptide SLSHSPQ (SEQ ID NO: 1) (10 µM) was added to the cells, and incubated on a 37° C. hot plate for 10, 30 and 60 minutes. These were washed with 500 μL of cold PBS three times, and fixed with 4% PFA for 10 minutes. […] (registered trademark) Mounting Medium with DAPI was dropped, then, a cover glass was place thereon to enclose it, and FAM and DAPI were observed by a confocal microscopy. […] From this, it was confirmed that the synthetic cyclic peptide SLSHSPQ (SEQ ID NO: 1) is internalized in the cell."}, "hCMEC/D3 cells [5]": {"tested_on": "hCMEC/D3 cells", "experiment": "Influence of ligands on hCMEC/D3 permeation of SLS-phage", "experimental": "Using the hCMEC/D3 cells, influences by various ligands (vitronectin, fibrinogen, RGD peptide, transferrin) on the BBB permeability of the phage presenting the peptide SLSHSPQ (SEQ ID NO: 1) of the present invention were tested.\nIn the +vitronectin group, human vitronectin (R&D Systems, Inc.) was added to give 20 μg/mL. In the +fibrinogen group, human fibrinogen (Wako) was added to give 50 μg/mL. In the +RGD group, an RGD peptide (SIGMA) was added to give 100 μM. In the +holo-Tf (transferrin) group, holo-Tf (SIGMA) was added to give 100 μM."}}, "note": "Positions of bridges follow the written chain, without caps; N, C: chain ends. Residues, ends and D or L forms follow the SMILES beside them.", "data": [{"molecule": "CC[C@@]1([C@@H]2O[C@@H]([C@H]3O[C@@](O)(CO)[C@H](C)C[C@@H]3C)C[C@@H]2C)CC[C@H]([C@]2(C)CC[C@]3(C[C@H](O)[C@@H](C)[C@@H]([C@@H](C)[C@@H](OC)[C@H](C)C(=O)O)O3)O2)O1", "note": "[monensin]", "values": [{"measurement": "effect on hCMEC/D3 cell permeation amount of the SLS-phage", "setting": "hCMEC/D3 cells [1]", "value": "increased"}]}, {"molecule": "CC(C)C[C@@H]1NC(=O)[C@H](CO)NC(=O)[C@@H](NC(=O)[C@H](C)N)CSSC[C@@H](C(=O)NCC(=O)NCC(=O)NCC(=O)N[C@@H](CO)C(=O)O)NC(=O)[C@H](CCC(N)=O)NC(=O)[C@@H]2CCCN2C(=O)[C@H](CO)NC(=O)[C@H](Cc2c[nH]cn2)NC(=O)[C@H](CO)NC1=O", "note": "[synthetic cyclic peptide SLSHSPQ] (H-ACSLSHSPQCGGGS-OH; disulfide 2-10)", "values": [{"measurement": "cytotoxicity (cell viability)", "setting": "hCMEC/D3 cells [2]", "value": "no cytotoxicity"}, {"measurement": "influence on tight junction (TEER)", "setting": "hCMEC/D3 cells [3]", "value": "did not reduce the tight junction"}]}, {"molecule": "FAM-labeled synthetic cyclic peptide SLSHSPQ: Cyclic ACSLSHSPQCGGGS with lysine residue added to the C-terminal and FAM bonded (not fully specified; cyclic; C-terminal lysine added; FAM label)", "values": [{"measurement": "uptake into hCMEC/D3 cells", "setting": "hCMEC/D3 cells [4]", "value": "taken up into the cells"}]}, {"molecule": "RGD peptide", "values": [{"measurement": "effect on permeation of the SLS-phage", "setting": "hCMEC/D3 cells [5]; ligand 100 μM", "value": "did not inhibit"}]}, {"molecule": "fibrinogen", "values": [{"measurement": "effect on permeation of the SLS-phage", "setting": "hCMEC/D3 cells [5]; human fibrinogen 50 μg/mL", "value": "did not inhibit"}]}, {"molecule": "holo-transferrin", "values": [{"measurement": "effect on permeation of the SLS-phage", "setting": "hCMEC/D3 cells [5]; ligand 100 μM", "value": "promoted"}]}, {"molecule": "vitronectin (protein, UniProt P04004 20-478, looked up, human vitronectin (R&D Systems, Inc.)) Vitronectin: DQESCKGRCTEGFNVDKKCQCDELCSYYQSCCTDYTAECKPQVTRGDVFTMPEDEYTVYDDGEEKNNATVHEQVGGPSLTSDLQAQSKGNPEQTPVLKPEEEAPAPEVGASKPEGIDSRPETLHPGRPQPPAEEELCSGKPFDAFTDLKNGSLFAFRGQYCYELDEKAVRPGYPKLIRDVWGIEGPIDAAFTRINCQGKTYLFKGSQYWRFEDGVLDPDYPRNISDGFDGIPDNVDAALALPAHSYSGRERVYFFKGKQYWEYQFQHQPSQEECEGSSLSAVFEHFAMMQRDSWEDIFELLFWGRTSAGTRQPQFISRDWHGVPGQVDAAMAGRIYISGMAPRPSLAKKQRFRHRNRKGYRSQRGHSRGRNQNSRRPSRATWLSLFSSEESNLGANNYDDYRMDWLVPATCEPIQSVFFFSGDKYYRVNLRTRRVDTVDPPYPRSIAQYWLGCPAPGHL", "values": [{"measurement": "effect on permeation of the SLS-phage", "setting": "hCMEC/D3 cells [5]; human vitronectin 20 μg/mL", "value": "inhibited"}]}]}
